Values quoted from earlier work in patent US12414914B2, “Docetaxel composition for injection and preparation method therefor” (BIKA BIOTECHNOLOGY (GUANGZHOU) CO., LTD, priority 2018, dated 2025).

What was measured:
microtubules [1] = tested on: microtubules
cancer cells = conditions: compared to paclitaxel
microtubules [2] = conditions: compared to paclitaxel

Q: For `CC(=O)O[C@@]12CO[C@@H]1C[C@H](O)[C@@]1(C)C(=O)[C@H](O)C3=C(C)[C@@H](OC(=O)[C@H](O)[C@@H](NC(=O)OC(C)(C)C)c4ccccc4)C[C@@](O)([C@@H](OC(=O)c4ccccc4)[C@H]21)C3(C)C` (relative stereo) [docetaxel, [2aR-(2aα, 4β, 4aβ, 6β, 9α, (aR*, βS*), 11α, 12α, 12aα, 12bα)]-β-[[(1,1-dimethylethoxy)carbonyl]amino]-α-hydroxybenzene propanoic acid [12b-acetyloxy-12-benzoyloxy-2a, 3,4,4a, 5,6,9, 10, 11, 12, 12a, 12b-dodecahydro-4,6, 11-trihydroxy-4a, 8, 13, 13-tetramethyl-5-oxo-7, 11-methano-1H-cyclodeca-[3, 4]benz [1,2-b]oxet-9-yl] ester], which “Affinity to microtubules compared to paclitaxel” value (microtubules [1]) is on record?
A: Its value is 2 times higher.

Q: What about the “stability in alkaline conditions” value (alkaline conditions) of the same molecule?
A: The value was “unstable in alkaline conditions”.

Q: What about the solubility in ethanol (ethanol) of the same molecule?
A: Its solubility in ethanol is “soluble in ethanol”.

Q: What about the solubility in water (water) of the same molecule?
A: The solubility in water was “practically insoluble in water”.

Q: What about the “anti-tumor activity in vitro relative to paclitaxel” value (cancer cells) of the same molecule?
A: Its value is 1.3˜12 times more active.

Q: What about the “activity as microtubule stabilizer and assembly promoter relative to paclitaxel” value (microtubules [2]) of the same molecule?
A: Its value is “twice as active as paclitaxel”.

Q: What about the “activity as microtubule-depolymerizing inhibitor relative to paclitaxel” value (microtubules [2]) of the same molecule?
A: Its value is “twice as active as paclitaxel”.
